In brackets after ≈: the same amount, converted by molar mass.
What was measured:
[1] = target: T1, Carnitine O-palmitoyltransferase 1, muscle isoform (Homo sapiens, UniProt Q92523); experiment: SUPPLEMENTARY: Inhibition of Carnitine palmitoyltransferase 1, muscle isoform; set-up: species or system Muscle tissue
T1 sequence (Q92523 whole entry): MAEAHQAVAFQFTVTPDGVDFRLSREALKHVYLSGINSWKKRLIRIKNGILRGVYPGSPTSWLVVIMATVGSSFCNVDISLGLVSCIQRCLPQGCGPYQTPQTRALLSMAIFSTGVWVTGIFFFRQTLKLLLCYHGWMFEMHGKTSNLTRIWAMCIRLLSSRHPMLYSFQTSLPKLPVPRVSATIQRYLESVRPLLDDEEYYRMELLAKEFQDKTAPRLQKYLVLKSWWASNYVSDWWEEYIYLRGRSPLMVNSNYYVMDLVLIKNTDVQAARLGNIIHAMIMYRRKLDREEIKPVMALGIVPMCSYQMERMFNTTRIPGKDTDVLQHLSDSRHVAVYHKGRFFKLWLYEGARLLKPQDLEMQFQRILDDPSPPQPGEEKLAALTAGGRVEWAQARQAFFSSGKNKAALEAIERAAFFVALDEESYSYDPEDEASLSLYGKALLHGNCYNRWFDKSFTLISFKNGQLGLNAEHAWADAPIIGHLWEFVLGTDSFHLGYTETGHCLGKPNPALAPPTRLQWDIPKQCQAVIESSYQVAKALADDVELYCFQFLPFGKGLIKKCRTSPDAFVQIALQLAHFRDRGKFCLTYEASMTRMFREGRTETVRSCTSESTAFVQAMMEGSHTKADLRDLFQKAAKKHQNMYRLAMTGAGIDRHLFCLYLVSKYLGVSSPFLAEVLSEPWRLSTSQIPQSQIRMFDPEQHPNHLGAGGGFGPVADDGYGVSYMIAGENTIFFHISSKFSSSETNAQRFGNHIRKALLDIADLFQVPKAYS

[2] = SUPPLEMENTARY: Lipophilicity (log D) Determination by high-throughput shake-flask; assay type: physicochemical; conditions: octanol/water
[3] = SUPPLEMENTARY: Lyophilisation Solubility Assay (LYSA); assay type: physicochemical; conditions: read-out: Kinetic_solubility
[4] = SUPPLEMENTARY: PAMPA permeability assay; assay type: physicochemical; conditions: read-out: Permeability
[5] = target: T2, Carnitine O-palmitoyltransferase 1, liver isoform (Rattus norvegicus, UniProt P32198); experiment: SUPPLEMENTARY: Inhibition of Carnitine palmitoyltransferase 1, liver isoform
T2 sequence (P32198 whole entry): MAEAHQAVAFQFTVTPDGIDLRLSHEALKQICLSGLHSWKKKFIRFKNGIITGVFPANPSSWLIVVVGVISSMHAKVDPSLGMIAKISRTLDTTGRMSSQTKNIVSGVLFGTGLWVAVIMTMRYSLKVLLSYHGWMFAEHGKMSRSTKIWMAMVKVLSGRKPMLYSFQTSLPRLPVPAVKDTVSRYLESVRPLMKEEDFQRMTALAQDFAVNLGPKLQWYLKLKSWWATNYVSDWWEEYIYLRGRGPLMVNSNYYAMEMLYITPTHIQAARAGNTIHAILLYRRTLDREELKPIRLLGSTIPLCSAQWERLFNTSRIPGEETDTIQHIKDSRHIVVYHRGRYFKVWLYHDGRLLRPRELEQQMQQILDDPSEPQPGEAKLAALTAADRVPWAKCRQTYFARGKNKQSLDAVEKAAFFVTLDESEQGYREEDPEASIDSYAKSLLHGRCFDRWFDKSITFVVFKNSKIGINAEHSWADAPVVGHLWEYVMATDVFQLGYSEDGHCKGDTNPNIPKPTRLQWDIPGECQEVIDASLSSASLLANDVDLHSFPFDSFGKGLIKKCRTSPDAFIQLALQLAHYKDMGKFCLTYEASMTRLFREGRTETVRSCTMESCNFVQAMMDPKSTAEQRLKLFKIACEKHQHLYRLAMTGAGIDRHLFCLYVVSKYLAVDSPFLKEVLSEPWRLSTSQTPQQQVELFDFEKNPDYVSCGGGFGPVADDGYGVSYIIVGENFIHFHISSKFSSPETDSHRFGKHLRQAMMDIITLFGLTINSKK

[6] = target: T3, Carnitine O-palmitoyltransferase 2, mitochondrial (Homo sapiens, UniProt P23786); experiment: (§1) SUPPLEMENTARY: Inhibition of Carnitine palmitoyltransferase 2
T3 sequence (P23786 whole entry): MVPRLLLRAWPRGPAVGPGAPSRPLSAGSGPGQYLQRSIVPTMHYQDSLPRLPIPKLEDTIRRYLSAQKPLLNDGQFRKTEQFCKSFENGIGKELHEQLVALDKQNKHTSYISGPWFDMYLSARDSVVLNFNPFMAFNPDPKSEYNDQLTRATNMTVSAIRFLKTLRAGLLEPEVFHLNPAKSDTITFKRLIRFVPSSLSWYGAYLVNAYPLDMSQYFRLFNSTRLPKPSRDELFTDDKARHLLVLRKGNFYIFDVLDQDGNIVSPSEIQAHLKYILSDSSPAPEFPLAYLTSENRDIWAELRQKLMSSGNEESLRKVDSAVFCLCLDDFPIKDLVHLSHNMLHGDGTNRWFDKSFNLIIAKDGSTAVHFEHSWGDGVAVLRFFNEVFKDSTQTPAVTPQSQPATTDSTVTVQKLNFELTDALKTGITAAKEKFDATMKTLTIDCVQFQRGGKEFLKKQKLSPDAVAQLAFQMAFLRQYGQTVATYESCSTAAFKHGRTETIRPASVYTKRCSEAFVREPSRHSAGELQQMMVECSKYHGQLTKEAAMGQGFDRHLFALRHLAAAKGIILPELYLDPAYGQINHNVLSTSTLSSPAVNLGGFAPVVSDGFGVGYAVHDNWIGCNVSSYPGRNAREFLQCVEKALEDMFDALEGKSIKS

[7] = target: T4, Carnitine O-palmitoyltransferase 2, mitochondrial (Rattus norvegicus, UniProt P18886); experiment: as §1
T4 sequence (P18886 whole entry): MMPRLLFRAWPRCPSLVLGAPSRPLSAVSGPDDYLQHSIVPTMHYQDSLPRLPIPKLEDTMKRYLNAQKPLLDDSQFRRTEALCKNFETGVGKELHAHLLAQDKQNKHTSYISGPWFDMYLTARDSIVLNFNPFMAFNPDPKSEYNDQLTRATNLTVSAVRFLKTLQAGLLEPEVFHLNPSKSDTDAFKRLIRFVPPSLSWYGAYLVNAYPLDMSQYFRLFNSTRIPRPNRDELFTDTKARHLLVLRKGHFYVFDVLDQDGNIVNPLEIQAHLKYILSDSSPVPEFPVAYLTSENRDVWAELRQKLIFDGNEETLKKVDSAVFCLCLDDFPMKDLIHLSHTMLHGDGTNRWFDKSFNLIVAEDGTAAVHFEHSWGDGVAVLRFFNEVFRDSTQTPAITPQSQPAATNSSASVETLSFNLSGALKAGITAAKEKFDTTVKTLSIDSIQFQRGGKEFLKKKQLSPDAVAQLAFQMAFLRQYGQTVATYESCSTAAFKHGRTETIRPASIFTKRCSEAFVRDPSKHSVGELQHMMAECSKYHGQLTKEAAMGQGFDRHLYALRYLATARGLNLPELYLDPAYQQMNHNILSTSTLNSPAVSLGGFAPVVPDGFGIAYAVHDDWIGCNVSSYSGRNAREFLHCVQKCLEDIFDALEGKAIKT

Row | Compound | IC50 [1] [µM] | logD [2] | solubility kinetic [3] [µg/mL] | Papp [4] [×10⁻⁶ cm/s] | IC50 [5] [µM] | IC50 [6] [µM] | IC50 [7] [µM]
1 | COc1ccc(-c2nc([C@H]3CCCCN3C(=O)COc3ccccc3)cs2)cn1 | > 100 | > 3 | 2 (≈ 4.88 µM) | 0.3 | 0.108 | 58.9 | > 100
2 | CC(=O)Nc1ccc(-c2nc([C@H]3CCCCN3C(=O)COc3ccccc3)cs2)cc1 | > 100 | 3.72 | 1 (≈ 2.3 µM) | 1.23 | 0.179 | > 100 | > 100
3 | O=C(COc1ccccc1)N1CCCC[C@@H]1c1csc(-c2ccccn2)n1 | > 100 | > 3 | 18 (≈ 47.4 µM) | 4.83 | 0.108 | > 100 | > 100
4 | O=C(O)c1cccc(-c2nc([C@H]3CCCCN3C(=O)COc3ccccc3)cs2)c1 | 95.9 | 0.92 | > 511 | 2.35 | 0.529 | 23 | > 100
5 | COc1ccc(Cl)cc1S(=O)(=O)N1CCc2c(C)cc(C(=O)Nc3ccc(CC(=O)O)cc3)cc21 | 0.447 | 0.62 | 37 (≈ 71.8 µM) | 3.07 | 0.238 | 98.4 | > 100
6 | O=C(COc1ccccc1)N1CCCC[C@@H]1c1nc(-c2ccc(Cl)nc2)cs1 | > 100 | > 3 | 1 (≈ 2.42 µM) | 1.25 | 0.305 | 62.1 | > 100
7 | CS(=O)(=O)c1ccc(-c2csc([C@H]3CCCCN3C(=O)COc3ccccc3)n2)cc1 | 6.12 | > 3 | 1 (≈ 2.19 µM) | 2.11 | 0.327 | 1.86 | > 100
8 | O=C(O)c1ccc(-c2csc([C@H]3CCCCN3C(=O)COc3ccccc3)n2)cc1 | 29 | 1.09 | > 563 | 5.18 | 0.496 | 10.6 | 42.1
9 | O=C(O)c1cccc(-c2csc([C@H]3CCCCN3C(=O)COc3ccccc3)n2)c1 | > 100 | 1.06 | 344 (≈ 814 µM) | 5.06 | 0.159 | 31.8 | 78.6
10 | O=C(COc1ccccc1)N1CCCC[C@@H]1c1nc(-c2ccncc2)cs1 | > 100 | 2.95 | 39 (≈ 103 µM) | 3.84 | 0.265 | 8.32 | 31.6
11 | N#Cc1ccc(-c2csc([C@H]3CCCCN3C(=O)COc3ccccc3)n2)cc1 | > 100 | > 3 | < 1 | 1.95 | 0.245 | 41.6 | > 100
12 | COc1ccc(Cl)cc1S(=O)(=O)N1CCc2ccc(C(=O)Nc3ccc(C(=O)O)c(F)c3)cc21 | 0.989 | 0.38 | 26 (≈ 51.5 µM) | 1.67 | 0.0663 | 1.37 | 4.86
13 | COc1ccc(Cl)cc1S(=O)(=O)N1COc2ccc(C(=O)Nc3ccc(C(=O)O)c(F)c3)cc21 | 2.08 | 0.35 | 30 (≈ 59.2 µM) | 1.92 | 0.0947 | 3.45 | 20.5
14 | O=C(COc1ccccc1)N1CCCC[C@@H]1c1nc(-c2ccccc2)cs1 | > 100 | 3.8 | < 1 | 1.48 | 0.306 | > 100 | > 100
15 | O=C(COc1ccccc1)N1CCCC[C@@H]1c1csc(-c2ccc(C(F)(F)F)nc2)n1 | > 100 | > 3 | < 1 | 1.31 | 0.985 | > 100 | > 100
16 | Cc1ccc(-c2nc([C@H]3CCCCN3C(=O)COc3ccccc3)cs2)cn1 | 36 | > 3 | 37 (≈ 94 µM) | 2.07 | 0.0605 | 24.3 | 88.3
17 | O=C(O)Cc1ccc(NC(=O)c2ccc3c(c2)N(S(=O)(=O)c2cccc(Cl)c2)CC3)cc1 | 4.5 | 0.48 | 20 (≈ 42.5 µM) | 3.65 | 0.0798 | > 100 | > 100

— ChEMBL document CHEMBL3431459, “Roche carnitine palmitoyltransferase modulator screening data (supplementary data associated with the publication CHEMBL2216752)”
